This assay deals with T1, SUMO E1 (Homo sapiens, UniProt Q9UBE0+Q9UBT2).
T1 construct: purchased R&D Systems
T1 sequence (Q9UBE0 1-346): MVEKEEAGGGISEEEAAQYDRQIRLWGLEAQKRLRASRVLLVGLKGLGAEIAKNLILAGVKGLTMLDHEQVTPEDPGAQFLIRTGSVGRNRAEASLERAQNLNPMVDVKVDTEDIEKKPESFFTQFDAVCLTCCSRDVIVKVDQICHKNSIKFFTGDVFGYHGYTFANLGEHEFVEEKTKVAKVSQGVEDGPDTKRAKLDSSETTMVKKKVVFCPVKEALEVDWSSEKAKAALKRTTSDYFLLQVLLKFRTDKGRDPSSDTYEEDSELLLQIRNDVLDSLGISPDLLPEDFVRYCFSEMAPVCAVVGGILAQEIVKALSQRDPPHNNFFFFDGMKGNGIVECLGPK
T1 sequence (Q9UBT2 1-640): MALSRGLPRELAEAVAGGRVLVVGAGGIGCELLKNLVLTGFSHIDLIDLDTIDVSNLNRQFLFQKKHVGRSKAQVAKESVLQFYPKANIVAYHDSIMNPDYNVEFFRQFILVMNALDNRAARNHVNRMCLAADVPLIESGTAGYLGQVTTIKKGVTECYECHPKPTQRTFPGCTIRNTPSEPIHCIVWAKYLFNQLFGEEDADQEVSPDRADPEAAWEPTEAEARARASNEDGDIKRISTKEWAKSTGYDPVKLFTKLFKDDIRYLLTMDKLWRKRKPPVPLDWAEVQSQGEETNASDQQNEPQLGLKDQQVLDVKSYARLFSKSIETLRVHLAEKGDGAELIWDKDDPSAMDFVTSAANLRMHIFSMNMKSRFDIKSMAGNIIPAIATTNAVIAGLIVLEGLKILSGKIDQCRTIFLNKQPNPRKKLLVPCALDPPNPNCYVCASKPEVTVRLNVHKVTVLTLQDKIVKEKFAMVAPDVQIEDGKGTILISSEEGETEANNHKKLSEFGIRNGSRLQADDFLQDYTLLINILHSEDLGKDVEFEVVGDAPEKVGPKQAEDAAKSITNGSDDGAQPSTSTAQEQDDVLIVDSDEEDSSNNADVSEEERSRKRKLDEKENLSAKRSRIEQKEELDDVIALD
Briefly: In-vitro E1-SUMO-1 and E1-dependent E2-SUMO-1 thioester formation (gel shift / western blot). Type of assay: biochemical. How it is done:
Figure 3 SUMO-specific activating enzyme, E1, is a direct target of N106. Mechanism of action of N106 on individual steps in the SUMOylation cascade in vitro. (a) Inorganic pyrophosphate resulting from ATP hydrolysis in E1-catalysed SUMO-1 activation in the presence of increasing concentration of N106 compound was assessed by fluorogenic pyrophosphate assay kit. Recombinant human SUMO-specific E1 (0.05 μM), human Ubc9 (0.25 μM), human SUMO-1 (12.5 μM) and ATP (1 mM) were incubated with increasing concentration of N106 for 30 min at 37 °C and quantified using a fluorescence microplate reader. (b) The SAE2-SUMO-1 conjugation was detected followed by western blotting with anti-SAE2 antibodies. SUMO E1 (0.05 μM), SUMO-1 (12.5 μM) and ATP (1 mM) were co-incubated with increasing concentration of N106 for 30 min at 37 °C. The reaction mixtures were separated on 7.5% SDS–PAGE gel under non-reducing conditions. (c) E2-SUMO-1 conjugation was visualized by western blotting with anti-Ubc9 antibody. SUMO E1 (0.05 μM), Ubc9 (0.25 μM), SUMO-1 (12.5 μM) and ATP (1 mM) were incubated without or with increasing concentration of N106 for 30 min at 37 °C. […] (e) ATP hydrolytic activity of WT and mutant SUMO E1 are determined. (f) The E1-SUMO-1 conjugation was detected followed by western blot analysis with anti-SAE2 antibody. *The SAE2-SUMO-1 conjugated bands. […]
Biochemical activity of SUMO-specific E1 enzymes was examined by ATPase assay and in-vitro gel-shifting assays. ATP hydrolysis activity of E1 enzymes was measured by using pyrophosphate assay kit (Abcam Inc.). […] The E1-thioester formation was analysed in reaction mixtures containing 0.05 μM E1, 12.5 μM SUMO-1 and 1 mM ATP with N106 or DMSO. The E1-dependent E2-SUMO-1 thioester formation was assessed using reaction containing 0.05 μM E1, 0.25 μM E2, 12.5 μM SUMO-1 and 1 mM ATP with N106 or DMSO. Assays were incubated at 37 °C for 30 min and were mixed with non-reducing sample buffer, and analysed in non-reducing condition. Western blotting using antibodies against SAE2 and Ubc9 detected the SUMO conjugations. […]
On the technique in general: Mobility shift assays separate free from complexed probe on a gel.

Consider `COc1ccc(-c2nnc(Nc3nc4c(OC)cccc4s3)o2)cc1` [Compound N106, N-(4-methoxybenzo[d]thiazol-2-yl)-5-(4-methoxyphenyl)-1,3,4-oxadiazol-2-amine], for which the “maximal tolerated doses for in-vitro thioester formation between the SUMO E1 and SUMO-1” value (30 min at 37 °C) is about 20 µM. Further, the “SUMO-1 conjugation to SUMO E1 and E1-dependent thioester bond formation between SUMO E2 and SUMO-1” value reads like this: (at 50 μM concentration) “less pronounced”; (at over 100 μM concentration) “inhibited”.

For the origin of these results see publication PMC4467461, “Small-molecule activation of SERCA2a SUMOylation for the treatment of heart failure” (Nature Communications, 2015).
